US7045495B2 (Sloan-Kettering Institute for Cancer Research, priority 1996, dated 2006)

Columns and labels:
MKN-74 = assay: cytotoxicity, Alamar Blue Assay; type: cell-based, human; conditions: 24 hours; RO 32-2241 10^-6 M, Mitomycin-C 5 μg/ml
From the text: It has been shown that PKC activity can act as an antagonist to apoptosis, whereas PKC inhibition can promote apoptosis. These observations imply that one function of PKC stimulated processes is to inhibit the induction of programmed cell death. Thus, anti-tumor effects of chemotherapeutic agents may be potentiated by PKC inhibitors that contribute to the induction of apoptosis after drug-induced damage. In order to test this hypothesis we have used the human gastric cancer cell MKN-74 to determine whether RO 32-2241 would enhance the cytotoxic effect of the chemotherapeutic agent Mitomycin-C (MMC). Cytotoxicity was measured and quantified using the Alamar Blue Assay. Cells were treated according to one of four conditions: (i) no drug (control) for 24 hours, (ii) RO 32-2241 alone at 10–6 M, (iii) Mitomycin-C alone at 5 μg/ml for 24 hours, (iv) the combination of RO 32-2241 (10^-6 M) and Mitomycin-C (5 μg/ml) for 24 hours. The results are summarized below for percent survival: […]

[1] = preclinical pharmacology of safingol; conditions: mouse, in vivo, mice
Experimental: Based on the mice studies applicants have predicted that in order to achieve meaningful chemopotentiation with either DOX or cisplatin applicants need to deliver the equivalent mouse dose of 5 mg/kg to 20 mg/kg safingol. […] From the pharmacology data obtained thus far from the patients treated with escalating doses of safingol and 45 mg/m^2 of DOX, it appears that applicants are approaching these target levels.

MDA-MB-468 cells = assay: cell proliferation studies; type: cell-based, human
[2] = intravenous safingol in emulsion; cited from earlier work

For CO[C@@]12[C@H](COC(N)=O)C3=C(C(=O)C(C)=C(N)C3=O)N1C[C@@H]1N[C@@H]12 [MMC, Mitomycin-C], the Percent survival (MKN-74) was 87%.

CCCCCCCCCCCCCCC[C@H](O)[C@@H](N)CO [safingol, L-threo-dihydrosphingosine] showed an AUC ([1]; 5 mg/kg safingol) of 668 ng·h/mL, a Cmax ([1]; 5 mg/kg safingol) of 1800 ng/mL and an AUC ([1]; 20 mg/kg safingol) of 2700 ng·h/mL. For the same molecule, the Cmax ([1]; 20 mg/kg safingol) was 7020 ng/mL, the “highest non-toxic dose (cell proliferation studies)” value (MDA-MB-468 cells) was 50 µM and the “clinical pathology and histopathology findings” value [2] was “venous irritation and transient intravascular hemolysis”.
